How the values were obtained:
[1] = system: human breast cancer MDA-MB-435 orthotopic xenografts; assay: Growth of human breast cancer MDA-MB-435 orthotopic xenografts in nude mice; type: in vivo, nude mice (BALB/cA); conditions: 5 mg/kg, intravenous injection once per week for 7 continuous weeks
Procedure: (§1) Human breast cancer MDA-MB-435 cells (from American Type Culture Collection, ATCC, Rockville, Md., USA) in an exponential growth phase at a concentration of 2.5×10^7 cells/ml were inoculated into the second left mammary fat pad of 4-5-week old female nude mice (BALB/cA, provided by Shanghai Institute of Materia Medica, Chinese Academy of Sciences). When the tumors were grown to the size of 100-200 mm^3, the animals were evenly divided according tumor volumes into a negative control group, a doxorubicin injection (Adriamycin, ADM) treatment group (positive control group), and 5 mg/kg and 20 mg/kg PGAS treatment groups (PGAS experimental groups), 20 mice/group. […] In the experiments, a vernier caliper was used to measure the diameter of tumors twice a week, and the tumor volume (V) was calculated following the formula below: V=½×a×b^2
in which, a and b represent the length and the width of tumors, respectively. The relative tumor volume (RTV) was calculated based on the measured results, using the calculation formula: RTVt=Vt/Vo; in which, V0 is the measured tumor volume when animals were divided to different dosing (i.e. d0), and Vt is the tumor volume on the day of measurement. […]
(§2) At this point of time, the animals are sacrificed and subjected to anti-tumor effect evaluation. […] Further, the effect of PGAS on angiogenesis in vivo was evaluated by immunohistochemical staining.

[2] = system: lung metastasis of human breast cancer MDA-MB-435 orthotopic xenografts; assay: Lung metastasis of human breast cancer MDA-MB-435 orthotopic xenografts; type: in vivo, nude mice (BALB/cA); conditions: 5 mg/kg, intravenous injection once per week for 7 continuous weeks
Procedure: as §1
The animals were sacrificed 1 week after discontinuation of dosing. […] The number of lung metastasis nodes per lung was observed and recorded under a dissecting microscope. […] A part of lungs and orthotopic tumor tissues were fixed in 10% formalin, and angiogenesis in tumor tissues was determined by H&E staining and immunohistochemistry.
as §2

COc1cccc2c1C(=O)c1c(O)c3c(c(O)c1C2=O)C[C@@](O)(C(=O)CO)C[C@@H]3O[C@H]1C[C@H](N)[C@H](O)[C@H](C)O1 [ADM, Doxorubicin]
relative tumor proliferation rate T/C [1]: 21.8% | inhibition rate on lung metastasis [2]: 89.8%
